Test results taken from US12036231B2, “Cyclic dinucleotides as agonists of stimulator of interferon gene dependent signalling” (Board of Regents, The University of Texas System, priority 2017, dated 2024).

Experiments:
[1] = target: T1, STING receptor (Homo sapiens, UniProt Q86WV6, G230A/H232R/R293Q/R71H); assay: THP-1 Dual assay, IRF pathway (secreted Lucia luciferase reporter; IRF3 activation); format: cell-based; details: 18 h incubation
T1 construct: host or cells: THP-1 Dual cells (human monocytic THP-1 with NF-kB-SEAP and IRF-Lucia reporters)
T1 sequence (Q86WV6 whole entry R71H/G230A/H232R/R293Q): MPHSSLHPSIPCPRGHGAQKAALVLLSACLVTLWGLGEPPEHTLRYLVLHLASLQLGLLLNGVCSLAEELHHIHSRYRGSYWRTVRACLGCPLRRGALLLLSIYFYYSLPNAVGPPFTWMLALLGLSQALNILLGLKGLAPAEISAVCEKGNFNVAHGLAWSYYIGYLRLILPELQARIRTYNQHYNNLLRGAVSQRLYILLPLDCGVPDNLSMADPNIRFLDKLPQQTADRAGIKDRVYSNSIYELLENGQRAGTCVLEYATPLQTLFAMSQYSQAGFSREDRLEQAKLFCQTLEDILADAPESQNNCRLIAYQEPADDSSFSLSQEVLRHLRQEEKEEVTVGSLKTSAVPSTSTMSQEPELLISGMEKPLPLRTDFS
Excerpt: (§1) The INVIVOGEN® THP-1 Dual™ assay (catalog code: thpd-nfis) was used to evaluate the listed compounds as agonist of the STING receptor. The THP-1 Dual™ cells are derived from the human monocytic cell line THP-1 by stable integration of two inducible reporter constructs. This assay enables simultaneous study of the two main signaling pathways for STING: (a) the NF-κB pathway, by monitoring the activity of secreted embryonic alkaline phosphatase (SEAP); and (b) the Interferon regulatory factor (IRF) pathway, by assessing the activity of a secreted luciferase (Lucia™).
(§2) The procedure as set forth by the manufacturer was followed, with the following modifications: (1) plates are incubated 18 h after addition of cell suspension, and (2) the optional differentiation step is not employed. Tables 1 and 2. Biological Activity

[2] = target: T1, STING receptor; assay: THP-1 Dual assay, NF-κB pathway (SEAP reporter); format: cell-based; details: 18 h incubation
Excerpt: as §1, §2

[3] = test system: MT4-2D cells; assay: Mouse Ductal Pancreatic Cancer Assay (subcutaneous MT4-2D tumors, intra-tumoral injection); format: in vivo, C57BL/6J mice; details: 5 ug intra-tumorally on day 15
Protocol: Mouse Ductal Pancreatic Cancer Assay
The procedure of Boj et a. […] 2.5×10^5 MT4-2D cells were injected subcutaneously on the right flank of male 6 week old C57BL/6J mice. 5 ug of the indicated STING agonist was injected intra-tumorally on day 15 in a volume of 50 ul.

[4] = day 0 post challenge (before dosing)
[5] = day 4 post challenge (before dosing)
[6] = day 6 post challenge (before dosing)
[7] = day 8 post challenge (before dosing)
[8] = day 10 post challenge (before dosing)
[9] = day 12 post challenge (before dosing)
[10] = day 14 post challenge (before dosing)
[11] = day 15 post challenge (day of dosing)

Structure (SMILES) | Fold induction of IRF3 activation in THP-1 Dual cells ([1]; 1 mg/mL STING agonist) [fold] | Fold induction of IRF3 activation in THP-1 Dual cells ([1]; 5 mg/mL STING agonist) [fold] | Fold induction of NF-κB activation THP-1 Dual cells ([2]; 5 mg/mL STING agonist) [fold] | Fold induction of IRF3 activation in THP-1 Dual cells ([1]; 0.1 mg/mL STING agonist) [fold] | Fold induction of IRF3 activation in THP-1 Dual cells ([1]; 0.5 mg/mL STING agonist) [fold] | Fold induction of IRF3 activation in THP-1 Dual cells ([1]; 10 mg/mL STING agonist) [fold] | Fold induction of NF-κB activation THP-1 Dual cells ([2]; 0.1 mg/mL STING agonist) [fold] | Fold induction of NF-κB activation THP-1 Dual cells ([2]; 0.5 mg/mL STING agonist) [fold] | Fold induction of NF-κB activation THP-1 Dual cells ([2]; 1 mg/mL STING agonist) [fold] | Fold induction of NF-κB activation THP-1 Dual cells ([2]; 10 mg/mL STING agonist) [fold] | Tumor Vol [3, 4] [mm^3] | Tumor Vol [3, 5] [mm^3] | Tumor Vol [3, 6] [mm^3] | Tumor Vol [3, 7] [mm^3] | Tumor Vol [3, 8] [mm^3] | Tumor Vol [3, 9] [mm^3] | Tumor Vol [3, 10] [mm^3] | Tumor Vol [3, 11] [mm^3] | Tumor Vol ([3]; day 16 post challenge) [mm^3] | Tumor Vol ([3]; day 22 post challenge) [mm^3] | other results
Nc1ncnc2c1ccn2[C@@H]1O[C@@H]2COP(=O)(S)O[C@@H]3[C@H](O)[C@@H](CO[P@@](=O)(S)O[C@@H]2[C@H]1O)O[C@H]3n1cnc2c(N)ncnc21 (single isomer, unassigned) [Example 1a] | 9.77 | 112.64 | 2.77 | – | – | – | – | – | – | – | – | – | – | – | – | – | – | – | – | – | –
Nc1ncnc2c1ccn2[C@@H]1O[C@@H]2COP(=O)(S)O[C@@H]3[C@H](O)[C@@H](CO[P@@](=O)(S)O[C@@H]2[C@H]1O)O[C@H]3n1cnc2c(N)ncnc21 (single isomer, unassigned) [Example 1b] | 3.52 | 25.91 | 1.29 | 0.99 | 1.88 | 87.63 | 0.97 | 0.99 | 1.01 | 3.71 | – | – | – | – | – | – | – | – | – | – | –
Nc1nc2c(ncn2[C@@H]2O[C@@H]3COP(=O)(O)O[C@H]4[C@@H](O)[C@H](n5cnc6c(=O)[nH]c(N)nc65)O[C@@H]4COP(=O)(O)O[C@H]3[C@H]2O)c(=O)[nH]1 [3′,5′-c-di-GMP, cyclic di-GMP (guanosine 5′-monophosphate), reference compound] | 1.32 | 2.87 | 1.02 | 1.07 | 1.26 | 5.93 | 0.99 | 0.98 | 0.97 | 1.10 | – | – | – | – | – | – | – | – | – | – | –
Nc1ncnc2c1ncn2[C@@H]1O[C@@H]2COP(=O)(S)O[C@@H]3[C@H](O)[C@@H](CO[P@@](=O)(S)O[C@H]2[C@H]1F)O[C@H]3n1cnc2c(N)ncnc21 (stereo partly drawn) [Example 2a, (1R,6R,8R,9R,10R,12R,15R,17R,18R)-8,17-di(6-amino-9H-purin-9-yl)-9-fluoro-18-hydroxy-3,12-dimercapto-2,4,7,11,13,16-hexaoxa-3λ^5, 12λ^5-diphosphatricyclo-[13.2.1.0^6,10]octadecane-3,12-dione] | – | – | – | – | – | – | – | – | – | – | 0.0 | 29.2 | 64.3 | 84.3 | 103.3 | 125.9 | 113.8 | 132.1 | 134.0 | 91.6 | Tumor Vol ([3]; day 17 post challenge): 122.7 mm^3; Tumor Vol ([3]; day 18 post challenge): 82.8 mm^3; Tumor Vol ([3]; day 20 post challenge): 72.8 mm^3; Tumor Vol ([3]; day 25 post challenge): 124.0 mm^3; Tumor Vol ([3]; day 27 post challenge): 142.0 mm^3; Tumor Vol ([3]; day 29 post challenge): 163.1 mm^3; Tumor Vol ([3]; day 32 post challenge): 217.7 mm^3
Nc1ncnc2c1ncn2[C@@H]1O[C@@H]2COP(=O)(S)O[C@@H]3[C@H](O)[C@@H](CO[P@@](=O)(S)O[C@H]2[C@H]1F)O[C@H]3n1cnc2c(N)ncnc21 (stereo partly drawn) [Example 2b, (1R,6R,8R,9R,10R,12R,15R,17R,18R)-8,17-di(6-amino-9H-purin-9-yl)-9-fluoro-18-hydroxy-3,12-dimercapto-2,4,7,11,13,16-hexaoxa-3λ^5, 12λ^5-diphosphatricyclo-[13.2.1.0^6,10]octadecane-3,12-dione] | – | – | – | – | – | – | – | – | – | – | 0.0 | 28.4 | 53.9 | 66.5 | 87.4 | 98.3 | 106.6 | 114.7 | 130.8 | 64.9 | Tumor Vol ([3]; day 17 post challenge): 128.3 mm^3; Tumor Vol ([3]; day 18 post challenge): 90.4 mm^3; Tumor Vol ([3]; day 20 post challenge): 115.3 mm^3; Tumor Vol ([3]; day 25 post challenge): 70.4 mm^3; Tumor Vol ([3]; day 27 post challenge): 80.7 mm^3; Tumor Vol ([3]; day 29 post challenge): 99.6 mm^3; Tumor Vol ([3]; day 32 post challenge): 102.6 mm^3
Nc1ncnc2c1ccn2[C@@H]1O[C@@H]2CO[P@@](=O)(S)O[C@@H]3[C@@H](O)[C@H](n4cnc5c(N)ncnc54)O[C@@H]3COP(=O)(S)O[C@@H]1[C@@H]2O (stereo partly drawn) [Example 3b, (1R,6R,8R,9R,10R,12R,15R,17R,18R)-17-(4-amino-7H-pyrrolo[2,3-d]pyrimidin-7-yl)-8-(6-amino-9H-purin-9-yl)-9,18-dihydroxy-3,12-dimercapto-2,4,7,11,13,16-hexaoxa-3λ^5, 12λ^5-diphosphatricyclo[13.2.1.0^6,10]octadecane-3,12-dione] | 1.56 | 5.05 | 1.08 | 1.38 | 1.48 | 6.70 | 0.98 | 0.99 | 1.00 | 1.14 | – | – | – | – | – | – | – | – | – | – | –
Nc1ncnc2c1ncn2[C@@H]1O[C@@H]2COP(O)(=S)O[C@@H]3C(O)[C@@H](COP(O)(=S)O[C@H]2[C@H]1O)O[C@H]3n1cnc2c(N)ncnc21 (stereo partly drawn) [ML-RR-CDA, dithio-[Rp,Sp]-cyclic-[A(2′,5′)p-A(3′,5′)p], reference compound] | – | – | – | – | – | – | – | – | – | – | 0.0 | 19.0 | 56.3 | 81.9 | 84.5 | 107.3 | 110.9 | 125.6 | 193.2 | 147.2 | Tumor Vol ([3]; day 25 post challenge): 154.0 mm^3; Tumor Vol ([3]; day 27 post challenge): 241.4 mm^3; Tumor Vol ([3]; day 29 post challenge): 198.5 mm^3; Tumor Vol ([3]; day 32 post challenge): 250.1 mm^3
